Laboratory results from patent publication EP0550016A1, “Novel quinolone carboxylic acid derivatives and processes for preparing same” (KOREA RESEARCH INSTITUTE OF CHEMICAL TECHNOLOGY, priority 1991, dated 1993).
≈ marks a conversion by molar mass, not a printed value.

Columns and labels:
Format in all cases: cell-based
[1] = tested on: Streptococcus pyogenes 308 A; assay: In vitro anti-bacterial activity test (MIC, two-fold dilution method) against the standard strains; conditions: Table 1 strain 1: Streptococcus pyogenes 308 A
[2] = tested on: Streptococcus pyogenes 77 A; assay: as above; conditions: Table 1 strain 2: Streptococcus pyogenes 77 A; read-out: MIC
[3] = tested on: Streptococcus faecium MD 8b; assay: as above; conditions: Enterococcus faecium, MD8B; Table 1 strain 3: Streptococcus faecium MD 8b; read-out: MIC
[4] = tested on: Staphylococcus aureus SG 511; assay: as above; conditions: SG511; Table 1 strain 4: Staphylococcus aureus SG 511
[5] = tested on: Staphylococcus aureus 285; assay: as above; conditions: Table 1 strain 5: Staphylococcus aureus 285; read-out: MIC
[6] = tested on: Staphylococcus aureus 503; assay: as above; conditions: Table 1 strain 6: Staphylococcus aureus 503; read-out: MIC
[7] = tested on: Escherichia coli DC 0; assay: as above; conditions: DC0; Table 1 strain 7: Escherichia coli DC 0
[8] = tested on: Escherichia coli DC 0; assay: as above; conditions: DC0; Table 1 strain 8: Escherichia coli DC 0
[9] = tested on: Escherichia coli DC 2; assay: as above; conditions: DC2; Table 1 strain 9: Escherichia coli DC 2; read-out: MIC
[10] = tested on: Escherichia coli OTEM; assay: as above; conditions: Table 1 strain 10: Escherichia coli OTEM
[11] = tested on: Escherichia coli 1507 E; assay: as above; conditions: Table 1 strain 11: Escherichia coli 1507 E
[12] = tested on: Pseudomonas aeruginosa 9027; assay: as above; conditions: Table 1 strain 12: Pseudomonas aeruginosa 9027
[13] = tested on: Pseudomonas aeruginosa 1592 E; assay: as above; conditions: Table 1 strain 13: Pseudomonas aeruginosa 1592 E
[14] = tested on: Pseudomonas aeruginosa 1771; assay: as above; conditions: Table 1 strain 14: Pseudomonas aeruginosa 1771
[15] = tested on: Pseudomonas aeruginosa 1771 M; assay: as above; conditions: Table 1 strain 15: Pseudomonas aeruginosa 1771 M
[16] = tested on: Salmonella typhimurium; assay: as above; conditions: Salmonella enterica; Table 1 strain 16: Salmonella typhimurium
[17] = tested on: Klebsiella aerogenes 1082 E; assay: as above; conditions: Table 1 strain 17: Klebsiella aerogenes 1082 E
[18] = tested on: Klebsiella aerogenes 1522 E; assay: as above; conditions: Table 1 strain 18: Klebsiella aerogenes 1522 E
[19] = tested on: Enterobacter cloacae P 99; assay: as above; conditions: P99; Table 1 strain 19: Enterobacter cloacae P 99
[20] = tested on: Enterobacter cloacae 1321 E; assay: as above; conditions: Table 1 strain 20: Enterobacter cloacae 1321 E
[21] = tested on: Staphylococcus aureus 88 E; assay: In vitro anti-bacterial activity test (MIC, two-fold dilution method), Table 2 strains; conditions: Table 2 strain 1: Staphylococcus aureus 88 E
[22] = tested on: Staphylococcus aureus 121 E; assay: as above; conditions: Table 2 strain 2: Staphylococcus aureus 121 E; read-out: MIC
[23] = tested on: Staphylococcus aureus 208 E; assay: as above; conditions: Table 2 strain 3: Staphylococcus aureus 208 E; read-out: MIC
[24] = tested on: Staphylococcus aureus 256 E; assay: as above; conditions: Table 2 strain 4: Staphylococcus aureus 256 E
[25] = tested on: Staphylococcus aureus 690 E; assay: as above; conditions: Table 2 strain 5: Staphylococcus aureus 690 E; read-out: MIC
[26] = tested on: Staphylococcus aureus 692 E; assay: as above; conditions: Table 2 strain 6: Staphylococcus aureus 692 E
[27] = tested on: Staphylococcus aureus 693 E; assay: as above; conditions: Table 2 strain 7: Staphylococcus aureus 693 E; read-out: MIC
[28] = tested on: Staphylococcus aureus 694 E; assay: as above; conditions: Table 2 strain 8: Staphylococcus aureus 694 E; read-out: MIC
[29] = tested on: Staphylococcus aureus 695 E; assay: as above; conditions: Table 2 strain 9: Staphylococcus aureus 695 E; read-out: MIC
[30] = tested on: Staphylococcus aureus 697 E; assay: as above; conditions: Table 2 strain 10: Staphylococcus aureus 697 E
[31] = tested on: Staphylococcus aureus 701 E; assay: as above; conditions: Table 2 strain 11: Staphylococcus aureus 701 E; read-out: MIC
[32] = tested on: Staphylococcus aureus 703 E; assay: as above; conditions: Table 2 strain 12: Staphylococcus aureus 703 E; read-out: MIC
[33] = tested on: Staphylococcus aureus 705 E; assay: as above; conditions: Table 2 strain 13: Staphylococcus aureus 705 E; read-out: MIC
[34] = tested on: Staphylococcus aureus 706 E; assay: as above; conditions: Table 2 strain 14: Staphylococcus aureus 706 E; read-out: MIC
[35] = tested on: Staphylococcus aureus 707 E; assay: as above; conditions: Table 2 strain 15: Staphylococcus aureus 707 E; read-out: MIC
[36] = tested on: Staphylococcus aureus 708 E; assay: as above; conditions: Table 2 strain 16: Staphylococcus aureus 708 E
[37] = tested on: Staphylococcus aureus 711 E; assay: as above; conditions: Table 2 strain 17: Staphylococcus aureus 711 E; read-out: MIC
[38] = tested on: Staphylococcus aureus 714 E; assay: as above; conditions: Table 2 strain 18: Staphylococcus aureus 714 E; read-out: MIC
[39] = tested on: Staphylococcus aureus 725 E; assay: as above; conditions: Table 2 strain 19: Staphylococcus aureus 725 E; read-out: MIC

Compound `CNC1CC12CCN(c1c(F)cc3c(=O)c(C(=O)O)cn(C4CC4)c3c1Cl)C2` (stereo not drawn) [Example 9, 7-(1-methylamino-5-azaspiro[2,4]heptane-5-yl)-8-chloro-1-cyclopropyl-6-fluoro-1,4-dihydro-4-oxo-quinoline-3-carboxylic acid] has an MIC [1] of 0.391 µg/mL (≈ 0.963 µM), an MIC [2] of 0.195 µg/mL (≈ 0.48 µM) and an MIC [3] of 0.195 µg/mL (≈ 0.48 µM). It also gave an MIC [4] of 0.049 µg/mL (≈ 0.121 µM), an MIC [5] of 0.049 µg/mL (≈ 0.121 µM) and an MIC [6] of 0.049 µg/mL (≈ 0.121 µM). The MIC [7] was 0.025 µg/mL (≈ 0.0616 µM), the MIC [8] was 0.391 µg/mL (≈ 0.963 µM) and the MIC [9] was 0.098 µg/mL (≈ 0.241 µM). For the same compound, the MIC [10] was 0.049 µg/mL (≈ 0.121 µM), the MIC [11] was 0.098 µg/mL (≈ 0.241 µM) and the MIC [12] was 3.12 µg/mL (≈ 7.7 µM). The MIC [13] was 1.56 µg/mL (≈ 3.85 µM), the MIC [14] was 1.56 µg/mL (≈ 3.85 µM) and the MIC [15] was 0.781 µg/mL (≈ 1.92 µM). For the same compound, the MIC [16] was 0.049 µg/mL (≈ 0.121 µM), the MIC [17] was 0.025 µg/mL (≈ 0.0616 µM) and the MIC [18] was 0.195 µg/mL (≈ 0.48 µM). It also gave an MIC [19] of 0.098 µg/mL (≈ 0.241 µM), an MIC [20] of 0.025 µg/mL (≈ 0.0616 µM) and an MIC [21] of 0.195 µg/mL (≈ 0.48 µM). The MIC [22] was 0.098 µg/mL (≈ 0.241 µM), the MIC [23] was 0.098 µg/mL (≈ 0.241 µM) and the MIC [24] was 0.098 µg/mL (≈ 0.241 µM). The MIC [25] was 0.049 µg/mL (≈ 0.121 µM), the MIC [26] was 0.049 µg/mL (≈ 0.121 µM) and the MIC [27] was 0.049 µg/mL (≈ 0.121 µM). The MIC [28] was 0.098 µg/mL (≈ 0.241 µM), the MIC [29] was 0.049 µg/mL (≈ 0.121 µM) and the MIC [30] was 0.049 µg/mL (≈ 0.121 µM). The MIC [31] was 0.098 µg/mL (≈ 0.241 µM), the MIC [32] was 0.098 µg/mL (≈ 0.241 µM) and the MIC [33] was 0.098 µg/mL (≈ 0.241 µM). The MIC [34] was 0.098 µg/mL (≈ 0.241 µM), the MIC [35] was 0.098 µg/mL (≈ 0.241 µM) and the MIC [36] was 0.025 µg/mL (≈ 0.0616 µM). It also gave an MIC [37] of 0.025 µg/mL (≈ 0.0616 µM), an MIC [38] of 0.098 µg/mL (≈ 0.241 µM) and an MIC [39] of 0.098 µg/mL (≈ 0.241 µM).

In the case of `CNC1CC12CCN(c1c(F)cc3c(=O)c(C(=O)O)cn(C4CC4)c3c1F)C2` (stereo not drawn) [Example 8, 7-(1-methylamino-5-azaspiro[2,4]heptane-5-yl)-1-cyclopropyl-6,8-difluoro-1,4-dihydro-4-oxo-quinoline-3-carboxylic acid], the MIC [1] was 0.391 µg/mL (≈ 1 µM), the MIC [2] was 0.195 µg/mL (≈ 0.501 µM) and the MIC [3] was 0.195 µg/mL (≈ 0.501 µM). The MIC [4] was 0.049 µg/mL (≈ 0.126 µM), the MIC [5] was 0.049 µg/mL (≈ 0.126 µM) and the MIC [6] was 0.049 µg/mL (≈ 0.126 µM). For the same compound, the MIC [7] was 0.013 µg/mL (≈ 0.0334 µM), the MIC [8] was 0.391 µg/mL (≈ 1 µM) and the MIC [9] was 0.098 µg/mL (≈ 0.252 µM). For the same compound, the MIC [10] was 0.049 µg/mL (≈ 0.126 µM), the MIC [11] was 0.049 µg/mL (≈ 0.126 µM) and the MIC [12] was 1.56 µg/mL (≈ 4.01 µM). The MIC [13] was 1.56 µg/mL (≈ 4.01 µM), the MIC [14] was 1.56 µg/mL (≈ 4.01 µM) and the MIC [15] was 0.391 µg/mL (≈ 1 µM). The MIC [16] was 0.049 µg/mL (≈ 0.126 µM), the MIC [17] was 0.004 µg/mL (≈ 0.0103 µM) and the MIC [18] was 0.098 µg/mL (≈ 0.252 µM). It also gave an MIC [19] of 0.049 µg/mL (≈ 0.126 µM), an MIC [20] of 0.025 µg/mL (≈ 0.0642 µM) and an MIC [21] of 0.098 µg/mL (≈ 0.252 µM). The MIC [22] was 0.098 µg/mL (≈ 0.252 µM), the MIC [23] was 0.098 µg/mL (≈ 0.252 µM) and the MIC [24] was 0.195 µg/mL (≈ 0.501 µM). The MIC [25] was 0.049 µg/mL (≈ 0.126 µM), the MIC [26] was 0.049 µg/mL (≈ 0.126 µM) and the MIC [27] was 0.049 µg/mL (≈ 0.126 µM). For the same compound, the MIC [28] was 0.391 µg/mL (≈ 1 µM), the MIC [29] was 0.049 µg/mL (≈ 0.126 µM) and the MIC [30] was 0.049 µg/mL (≈ 0.126 µM). The MIC [31] was 0.195 µg/mL (≈ 0.501 µM), the MIC [32] was 0.195 µg/mL (≈ 0.501 µM) and the MIC [33] was 0.195 µg/mL (≈ 0.501 µM). The MIC [34] was 0.098 µg/mL (≈ 0.252 µM), the MIC [35] was 0.195 µg/mL (≈ 0.501 µM) and the MIC [36] was 0.049 µg/mL (≈ 0.126 µM). For the same compound, the MIC [37] was 0.049 µg/mL (≈ 0.126 µM), the MIC [38] was 0.049 µg/mL (≈ 0.126 µM) and the MIC [39] was 0.098 µg/mL (≈ 0.252 µM).
